Literature values, collected in US20090062907A1, “Self-expanding valve for the venous system” (priority 2007, published 2009).

solubility in alcohol (alcohol): soluble
solubility in water (water): sparingly soluble
SMILES: C[C@H](CCC(=O)O)[C@H]1CC[C@H]2[C@@H]3CC[C@@H]4C[C@H](O)CC[C@]4(C)[C@H]3C[C@H](O)[C@]12C [Deoxycholic acid]
